Test results published in patent US12679878B2, “CRF2 receptor agonists and their use in therapy” (SANOFI, priority 2020, dated 2026).
In brackets after ≈: the same amount, converted by molar mass. Starred links: 1 amine or outer side, 2 acyl side, 3 side chain; linkers in the order of their positions; H or OH if unused. Non-standard residues stand in square brackets, D forms with d. Residues, ends and D or L forms follow the SMILES beside them. Groups on a side chain read outwards from the residue. *: point of attachment. C18 diacid = O=C(O)CCCCCCCCCCCCCCCCC(=O)*; γGlu = O=C(O)[C@H](CCC(=O)[*:2])N[*:1]; AEEA = NCCOCCOCC(=O)O; Aib = CC(C)(N)C(=O)O

What was measured:
[1] = Physical stability, Thioflavin T fibrillation assay (Example 14); type: physicochemical; conditions: Buffer B: 100 mM acetate buffer, pH 4.5, 2.7 mg/ml m-cresol; 3 mg/ml; 37° C. shaking
How it was run: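 Compounds at 3 mg/ml final in buffer were stressed at 37° C by repeated cycles of 10 s shaking at 960 rpm and 50 s rest. ThT fluorescence was read every 20 minutes in eight replicates, with fluorescence increase and lag time indicating fibrillation tendency.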

[2] = system: rat CRF2R α receptor; assay: cAMP agonism at rat CRF2R α receptor in A7R5 rat aortic smooth muscle cells (Example 8); type: cell-based; conditions: cAMP HTRF, A7R5 rat aortic smooth muscle cell line, 0% HSA
How it was run: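 Thawed cryopreserved A7R5 cells in HBSS/20 mM HEPES (0 or 0.1% HSA) with 2 mM IBMX, 2000 cells/well, were exposed to compound for 30 min at room temperature. cAMP was read by HTRF (665/620 nm ratio) after 1 h with lysis reagents. Activity was normalised to 1000 nM urocortin 2 as 100%, and EC50 was taken as the concentration giving 50% of maximal activation.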

[3] = Solubility in buffer systems by UPLC-UV (Example 13); type: physicochemical
How it was run: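 The supernatant was diluted 1:10 and quantified by UPLC-UV peak area against a reference standard curve, correcting for sequence-based extinction coefficients.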

[4] = Chemical stability, purity loss by UPLC-UV after 28 days at 40° C. vs 5° C., pH 4.5 acetate buffer (Example 12); type: physicochemical; conditions: 28 days 40° C. vs 5° C.; pH 4.5, 20 mM acetate buffer; 300 μM
How it was run: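 300 μM compound (purity-corrected) in 20 mM acetate buffer, pH 4.5, stored 28 days at 5 and 40° C. Purity by UPLC-UV as compound peak area over total peak area. Value is the purity difference between 5° C. and 40° C. samples, relative to the 5° C. purity, in percent.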

[5] = pH 4.5, Solubility in Buffer A [mg/ml]
[6] = pH 4.5, Solubility in Buffer B [mg/ml]
[7] = pH 7.4, Solubility in Buffer C [mg/ml]

Compound	Increase in FI (fluorescence intensity) [1]	Lag time [1] [h]	EC50 [2] [nM]	solubility at 1 h [3, 5] [µg/mL]	solubility at 1 h [3, 6] [µg/mL]	solubility at 1 h [3, 7] [µg/mL]	Relative purity loss [%] [4] [%]
CC[C@H](C)[C@H](N)C(=O)N[C@H](C(=O)N[C@@H](CC(C)C)C(=O)N[C@@H](CO)C(=O)N[C@@H](CC(C)C)C(=O)N[C@@H](CC(=O)O)C(=O)N[C@H](C(=O)N1CCC[C@H]1C(=O)N[C@H](C(=O)N[C@@H](CCCCN)C(=O)N[C@@H](CC(C)C)C(=O)N[C@@H](CCCCNC(=O)COCCOCCNC(=O)COCCOCCNC(=O)CC[C@H](NC(=O)CCCCCCCCCCCCCCCCC(=O)O)C(=O)O)C(=O)N[C@@H](CCCCN)C(=O)N[C@H](C(=O)N[C@@H](CC(C)C)C(=O)N[C@@H](CC(C)C)C(=O)N[C@@H](CCCCN)C(=O)N[C@@H](CCC(N)=O)C(=O)N[C@@H](CCC(=O)O)C(=O)N[C@@H](CCCNC(=N)N)C(=O)N[C@@H](CCC(N)=O)C(=O)N[C@@H](CCCCN)C(=O)N[C@@H](CCCCN)C(=O)NC(C)(C)C(=O)N[C@@H](CCCNC(=N)N)C(=O)N[C@@H](CCC(=O)O)C(=O)N[C@@H](CCC(N)=O)C(=O)N[C@@H](C)C(=O)N[C@@H](CCC(=O)O)C(=O)N[C@@H](CCCCN)C(=O)N[C@@H](CC(N)=O)C(=O)N[C@@H](CCCCN)C(=O)N[C@@H](CCC(N)=O)C(=O)N[C@H](C(=O)N[C@@H](CC(C)C)C(=O)N[C@@H](C)C(=O)N[C@@H](CCC(N)=O)C(=O)N[C@H](C(N)=O)C(C)C)[C@@H](C)CC)[C@@H](C)CC)[C@@H](C)CC)C(C)C)C(C)C [compound 99] (H-IVLSLDVPIKLK([AEEA-AEEA-γGlu-C18 diacid])KILLKQERQKK[Aib]REQAEKNKQILAQV-NH2)	No	>45	0.62	> 10000	–	–	–
CC[C@H](C)[C@H](N)C(=O)N[C@H](C(=O)N[C@@H](CC(C)C)C(=O)N[C@@H](CO)C(=O)N[C@@H](CC(C)C)C(=O)N[C@@H](CC(=O)O)C(=O)N[C@@H](C(=O)N1CCC[C@H]1C(=O)N[C@H](C(=O)N[C@@H](CCCCN)C(=O)N[C@@H](CC(C)C)C(=O)N[C@@H](CCCCNC(=O)COCCOCCNC(=O)COCCOCCNC(=O)CC[C@H](NC(=O)CCCCCCCCCCCCCCCCC(=O)O)C(=O)O)C(=O)N[C@@H](CCC(N)=O)C(=O)N[C@H](C(=O)N[C@@H](CC(C)C)C(=O)N[C@@H](CC(C)C)C(=O)N[C@@H](CCCCN)C(=O)N[C@@H](CCC(N)=O)C(=O)N[C@@H](CCC(=O)O)C(=O)N[C@@H](CCCNC(=N)N)C(=O)N[C@@H](CCC(N)=O)C(=O)N[C@@H](CCCCN)C(=O)NC(C)(C)C(=O)N[C@@H](CCC(N)=O)C(=O)N[C@@H](CCCNC(=N)N)C(=O)N[C@@H](CCC(N)=O)C(=O)N[C@@H](CCC(N)=O)C(=O)N[C@@H](C)C(=O)N[C@@H](CCC(=O)O)C(=O)N[C@@H](CCCCN)C(=O)N[C@@H](CC(N)=O)C(=O)N[C@@H](CCCCN)C(=O)N[C@@H](CCC(N)=O)C(=O)N[C@H](C(=O)N[C@@H](CC(C)C)C(=O)N[C@@H](C)C(=O)N[C@@H](CCC(N)=O)C(=O)N[C@H](C(N)=O)C(C)C)[C@@H](C)CC)[C@@H](C)CC)[C@@H](C)CC)C(C)C)C(C)C [compound 135] (H-IVLSLD[dV]PIKLK([AEEA-AEEA-γGlu-C18 diacid])QILLKQERQK[Aib]QRQQAEKNKQILAQV-NH2; N-terminus assumed)	No	>45	0.13	> 8400	> 9200	7500 (≈ 1450 µM)	3.55
CC[C@H](C)[C@H](N)C(=O)N[C@H](C(=O)N[C@@H](CC(C)C)C(=O)N[C@@H](CO)C(=O)N[C@@H](CC(C)C)C(=O)N[C@@H](CC(=O)O)C(=O)N[C@@H](C(=O)N1CCC[C@H]1C(=O)N[C@H](C(=O)N[C@@H](CCCCN)C(=O)N[C@@H](CC(C)C)C(=O)N[C@@H](CCCCNC(=O)COCCOCCNC(=O)COCCOCCNC(=O)CC[C@H](NC(=O)CCCCCCCCCCCCCCCCC(=O)O)C(=O)O)C(=O)N[C@@H](CCC(N)=O)C(=O)N[C@H](C(=O)N[C@@H](CC(C)C)C(=O)N[C@@H](CC(C)C)C(=O)N[C@@H](CCCCN)C(=O)N[C@@H](CCC(N)=O)C(=O)N[C@@H](CCC(=O)O)C(=O)N[C@@H](CCCNC(=N)N)C(=O)N[C@@H](CCC(N)=O)C(=O)N[C@@H](CCCCN)C(=O)N[C@@H](CCCCN)C(=O)NC(C)(C)C(=O)N[C@@H](CCCNC(=N)N)C(=O)N[C@@H](CCC(N)=O)C(=O)N[C@@H](CCCCN)C(=O)N[C@@H](C)C(=O)N[C@@H](CCC(=O)O)C(=O)N[C@@H](CCCCN)C(=O)N[C@@H](CC(N)=O)C(=O)N[C@@H](CCCCN)C(=O)N[C@@H](CCC(N)=O)C(=O)N[C@H](C(=O)N[C@@H](CC(C)C)C(=O)N[C@@H](C)C(=O)N[C@@H](CCC(N)=O)C(=O)N[C@H](C(N)=O)C(C)C)[C@@H](C)CC)[C@@H](C)CC)[C@@H](C)CC)C(C)C)C(C)C [compound 136] (H-IVLSLD[dV]PIKLK([AEEA-AEEA-γGlu-C18 diacid])QILLKQERQKK[Aib]RQKAEKNKQILAQV-NH2; N-terminus assumed)	–	–	0.38	> 8400	> 8600	7800 (≈ 1510 µM)	3.10
CC[C@H](C)[C@H](N)C(=O)N[C@H](C(=O)N[C@@H](CC(C)C)C(=O)N[C@@H](CO)C(=O)N[C@@H](CC(C)C)C(=O)N[C@@H](CC(=O)O)C(=O)N[C@@H](C(=O)N1CCC[C@H]1C(=O)N[C@H](C(=O)N[C@@H](CCCCN)C(=O)N[C@@H](CC(C)C)C(=O)N[C@@H](CCCCNC(=O)COCCOCCNC(=O)COCCOCCNC(=O)CC[C@H](NC(=O)CCCCCCCCCCCCCCCCC(=O)O)C(=O)O)C(=O)N[C@@H](CCC(N)=O)C(=O)N[C@H](C(=O)N[C@@H](CC(C)C)C(=O)N[C@@H](CC(C)C)C(=O)N[C@@H](CCCCN)C(=O)N[C@@H](CCC(N)=O)C(=O)N[C@@H](CCC(=O)O)C(=O)N[C@@H](CCCNC(=N)N)C(=O)N[C@@H](CCC(N)=O)C(=O)N[C@@H](CCCCN)C(=O)N[C@@H](CCCCN)C(=O)N[C@@H](CCC(N)=O)C(=O)N[C@@H](CCCNC(=N)N)C(=O)N[C@@H](CCC(=O)O)C(=O)N[C@@H](CCC(N)=O)C(=O)N[C@@H](C)C(=O)N[C@@H](CCC(=O)O)C(=O)N[C@@H](CCCCN)C(=O)N[C@@H](CC(N)=O)C(=O)N[C@@H](CCCCN)C(=O)N[C@@H](CCC(N)=O)C(=O)N[C@H](C(=O)N[C@@H](CC(C)C)C(=O)N[C@@H](CCC(=O)O)C(=O)N[C@@H](CCC(N)=O)C(=O)N[C@H](C(N)=O)C(C)C)[C@@H](C)CC)[C@@H](C)CC)[C@@H](C)CC)C(C)C)C(C)C [compound 137] (H-IVLSLD[dV]PIKLK([AEEA-AEEA-γGlu-C18 diacid])QILLKQERQKKQREQAEKNKQILEQV-NH2; N-terminus assumed)	–	–	0.14	> 8600	> 8400	> 8700	4.80
CC[C@H](C)[C@H](N)C(=O)N[C@H](C(=O)N[C@@H](CC(C)C)C(=O)N[C@@H](CO)C(=O)N[C@@H](CC(C)C)C(=O)N[C@@H](CC(=O)O)C(=O)N[C@@H](C(=O)N1CCC[C@H]1C(=O)N[C@H](C(=O)N[C@@H](CCCCN)C(=O)N[C@@H](CC(C)C)C(=O)N[C@@H](CCCCNC(=O)COCCOCCNC(=O)COCCOCCNC(=O)CC[C@H](NC(=O)CCCCCCCCCCCCCCCCC(=O)O)C(=O)O)C(=O)N[C@@H](CCC(N)=O)C(=O)N[C@H](C(=O)N[C@@H](CC(C)C)C(=O)N[C@@H](CC(C)C)C(=O)N[C@@H](CCCCN)C(=O)N[C@@H](CCC(N)=O)C(=O)N[C@@H](CCC(=O)O)C(=O)N[C@@H](CCCNC(=N)N)C(=O)N[C@@H](CCC(N)=O)C(=O)N[C@@H](CCCCN)C(=O)N[C@@H](CCCCN)C(=O)N[C@@H](CCC(N)=O)C(=O)N[C@@H](CCCNC(=N)N)C(=O)N[C@@H](CCC(N)=O)C(=O)N[C@@H](CCC(N)=O)C(=O)N[C@@H](C)C(=O)N[C@@H](CCC(=O)O)C(=O)N[C@@H](CCCCN)C(=O)N[C@@H](CC(N)=O)C(=O)N[C@@H](CCCCN)C(=O)N[C@@H](CCC(N)=O)C(=O)N[C@H](C(=O)N[C@@H](CC(C)C)C(=O)N[C@@H](C)C(=O)N[C@@H](CCC(N)=O)C(=O)N[C@H](C(N)=O)C(C)C)[C@@H](C)CC)[C@@H](C)CC)[C@@H](C)CC)C(C)C)C(C)C [compound 139] (H-IVLSLD[dV]PIKLK([AEEA-AEEA-γGlu-C18 diacid])QILLKQERQKKQRQQAEKNKQILAQV-NH2; N-terminus assumed)	–	–	0.1	> 9100	> 8600	> 8800	3.05
